Source: patent US20240100088A1, “NOVEL FORMULATION FOR TREATING COPPER METABOLISM-ASSOCIATED DISEASES OR DISORDERS” (Alexion Pharmaceuticals, Inc., priority 2021, published 2024)
“Also recorded” adds a separate entry of the source.

Legend:
[1] = Phase 1 study: safety and tolerability (TEAEs, TESAEs, clinical laboratory); assay type: in vivo, healthy adult participants
Method: (§1) The safety and tolerability of the 2 formulations of BC-TTM in healthy participants was also assessed. BC-TTM pharmacokinetics (PK) in plasma as measured via total molybdenum (Mo) and plasma ultrafiltrate (PUF) Mo was determined.

[2] = Phase 1 study, Dose-Proportionality Extension Period: PK of plasma total Mo and PUF Mo (incl. dose-normalized, power model); assay type: in vivo, healthy adult participants; conditions: any of the treatments evaluated
Method: as §1
The Dose-Proportionality Extension Period was a re-randomized, open-label, parallel group design to assess the dose-proportionality between 2.5 mg (2×1.25 mg), 5 mg (4×1.25 mg), 10 mg (8×1.25 mg), and 30 mg (24×1.25 mg) EC mini-tablet doses. The 15 mg (12×1.25 mg) dose was not repeated during the Dose-Proportionality Extension Period.
The Dose-Proportionality Extension Period was conducted following completion of the Two-way Crossover Period of the study and after an at least 14-day washout period. Participants were re-randomized as follows: • Treatment C (N=10-12): BC-TTM 2.5 mg (2×1.25 mg EC mini-tablets) • Treatment D (N=10-12): BC-TTM 5 mg (4×1.25 mg EC mini-tablets) • Treatment E (N=10-12): BC-TTM 10 mg (8×1.25 mg EC mini-tablets) • Treatment F (N=10-12): BC-TTM 30 mg (24×1.25 ma EC mini-tablets)
The dose-proportionality evaluation included data obtained from Treatment A of the Two-way Crossover Period (12×1.25 mg EC mini-tablets) to represent a dose of 15 mg,
Re-randomized treatment assignment were based on Baseline body mass index (BMI). Two strata for Baseline BM (<25, 25 to <32 kg/m^2) were used. […]

Compound: C[N+](C)(C)CCO.C[N+](C)(C)CCO.[SH-].[SH-].[S]=[Mo]=[S] [BC-TTM, Bis-choline tetrathiomolybdate]
- deaths or TESAEs ([1]; all treatments): No deaths or TESAEs were reported
- severity of TEAEs ([1]; all treatments, except 2 Grade 4 events after Treatment B): All TEAEs were Grade 1 or 2 in severity,
- safety profile and tolerability ([1]; single oral dose 2.5 mg to 30 mg as EC mini-tablets and as a 15 mg EC tablet): acceptable safety profile and was generally well-tolerated
- effect of body weight or BMI on BC-TTM PK [2]: apparently not affected; also recorded: There was no apparent effect of body
